Experimental data as given in patent publication US20060217368A1, “Drug for nerve regeneration” (Kyowa Hakko Kogyo Co., Ltd., priority 2003, published 2006).

Columns and labels:
Format in all cases: cell-based, rat
[1] = test system: ANSC-7 cells; assay: Suppression of neuropoiesis by associated beta amyloid peptide and relief by GSK-3 inhibitor (Tuj1 positive neurons); conditions: day 6
Description: A beta amyloid peptide (hereinafter, referred to as Aβ) is a principal component constituting senile plaques, and it is a substance which has been believed to be a cause of Alzheimer's disease [Proc. Nat. Acad. Sci., USA, 98, 11039-11041 (2001)]. Aβ [1-40] (manufactured by BIOSOURCE) was dissolved in 0.1% (v/v) trifluoroacetic acid (Manufactured by Nacalai Tesque, Inc.) to give 10 mg/ml, and incubated at 25° C. for 1 hour. Thereafter, the solution was diluted in PBS to give 0.5 mg/ml. The diluted solution was incubated at 25° C. for 24 hrs to allow the formation of an associated product [J. Biol. Chem., 276, 42027-42034 (2001)]. […] On day 2 and day 4 following the induction of differentiation, the entire medium was changed to the differentiation inducing medium alone, respectively, and the number of neurons was measured on day 6 following induction of the differentiation.
According to a similar method to that shown in Experimental Example 8, lithiumchloride at a final concentration of 3 mmol/l, or Kenpaullone at a final concentration of 2 μmol/l was added to a differentiation inducing medium containing the associated Aβ at a final concentration of 0.1 mg/ml upon inducing differentiation of the ANSC-7 cell, and the number of Tuj1 positive neurons on day 6 following inducing differentiation was analyzed.

[2] = test system: ANSC-7 cells; assay: Neuropoiesis of ANSC-7 adult neural stem cells: number of Tuj1 positive neurons after induction of differentiation
Description: ANSC-7 cells which can be obtained by the method described in Reference Example 2 are plated at 1.8×10^5 cells per well in a 12-well culture dish which was coated with polyornithine and laminin and was filled with a DMEM/F12 medium containing 1 ml of a 1% N2 supplement (manufactured by Invitrogen Corporation) and 20 ng/ml FGF-2 (manufactured by PeproTech Inc.), and incubated overnight. Entire culture fluid is changed into a DMEM/F12 medium containing 0.5% fetal bovine serum and a 1% N2 supplement without including FGF2 (manufactured by Invitrogen Corporation, hereinafter, referred to as differentiation inducing medium) to induce differentiation. Upon the induction, the substance that inhibits the activity of GSK-3 serially diluted in PBS (manufactured by Invitrogen Corporation) or DMSO in the range of from 0.01 mmol/l to […] is added thereto in 1/1000 volume. As a negative control, the same volume of PBS or DMSO is added.
After changing the culture fluid into the differentiation inducing medium supplemented with each substance that inhibits the activity of GSK-3 every three days, and inducing differentiation for 6 days, it is replaced with a 15% neutral buffered formalin solution (Wako Pure Chemical Industries, Ltd.) to allow fixation for 20 min. Thereafter, washing with PBS containing 0.3% Triton X-100 (manufactured by Nacalai Tesque, Inc.) for 5 min is repeated three times. Next, after blocking the cells using a 10% goat fetal serum diluted in PBS (manufactured by DAKO Corporation) for 2 hrs, a reaction is allowed with a mouse anti-Tuj1 (β tubulin isotype III) antibody (manufactured by Sigma-Aldrich Corporation) diluted 1000 times in PBS as a primary antibody at 4° C. for 16 hrs. Thereafter, washing with PBS containing 0.3% Triton X-100 for 5 min is repeated three times.
Next, a reaction is allowed with Alexa Fluor 488 conjugate goat anti-mouse IgG antibody (manufactured by Molecular Probes, Inc.) diluted 1000 times as a secondary antibody at room temperature for 2 hrs. At the same time, Bisbenzimide H 33342 Fluorochrome, Trihydrochloride (manufactured by CALBIOCHEM, hereinafter, described as H33342) is added thereto to give the final concentration of 1 μg/ml to stain the nucleus. After immersing in PBS, observation with an inverted fluorescence microscope (manufactured by Nikon Corporation) is conducted, and the number of Tuj1 positive cells per 2.44 mm^2 is counted.

[3] = test system: ANSC-7 cells; assay: Apoptosis of ANSC-7 cells (in situ cell death detection kit, fluorescein); conditions: final concentration 0.1 mg/ml; 6 days; vs PBS
Description: According to the method described in the above section 7, lithium chloride was added to give the final concentration of 3 mmol/l into the medium containing ANSC-7 cells followed by culture for 6 days. ANSC-7 cells thus cultured after adding lithium chloride, and ANSC-7 cells cultured after adding PBS as a control were allowed to a reaction using an in situ cell death detection kit, fluorescein (manufactured by Roche Diagnostics K.K.) according to the attached protocol. The cells were observed using an inverted fluorescence microscope (manufactured by Nikon Corporation), and the number of apoptotic cell was counted per 2.44 mm^2.
According to a similar method to that shown in Experimental Example 8, ANSC-7 cells subjected to induction of differentiation for 6 days by a differentiation inducing medium containing the associated Aβ at the final concentration of 0.1 mg/ml, and ANSC-7 cells subjected to induction of differentiation by a medium containing PBS as a control were allowed to react using an in situ cell death detection kit, fluorescein (manufactured by Roche Diagnostics K.K.) according to the attached protocol. The cells were observed using an inverted fluorescence microscope (manufactured by Nikon Corporation), and the number of apoptotic cells per 2.44 mm^2 was counted.

[4] = test system: ANSC-7 cells; assay: Neuropoiesis of ANSC-7 adult neural stem cells: number of Tuj1 positive neurons after induction of differentiation; conditions: siRNA introduced into ANSC-7; day 6
[5] = test system: GSK-3α; assay: Amount of GSK-3α in ANSC-7 cells after siRNA introduction (Western blotting); conditions: 150 pmol per 1×10^6 ANSC-7 cells; 48 hrs following seeding
[6] = final concentration 2 μmol/l, day 6
[7] = final concentration 5 μmol/l, day 6

## O=C1Cc2c([nH]c3ccc(Br)cc23)-c2ccccc2N1 [Kenpaullone, 9-bromo-7,12-dihydro-indolo[3,2-d][1]benzazepin-6(5H)-one]
[1]; 2 μmol/l with 0.1 mg/ml associated Aβ
  increase in number of Tuj1 positive neurons in comparison with associated Aβ alone: 400%
[2]; final concentration 0.5 μmol/l, day 6
  number of Tuj1 positive neurons in comparison with the negative control: 1.3 times
[2]; [6]
  number of Tuj1 positive neurons in comparison with the negative control: 2.7 times
[2]; [7]
  number of Tuj1 positive neurons in comparison with the negative control: 3.7 times

## CC[C@H](CO)Nc1nc(NCc2ccccc2)c2ncn(C(C)C)c2n1 [Roscovitine]
[2]; [6]
  number of Tuj1 positive neurons in comparison with the negative control: 1.0 times
[2]; [7]
  number of Tuj1 positive neurons in comparison with the negative control: 1.2 times
[2]; final concentration 10 μmol/l, day 6
  number of Tuj1 positive neurons in comparison with the negative control: 1.1 times

## Cn1cc(C2=C(c3ccc(Cl)cc3Cl)C(=O)NC2=O)c2ccccc21 [SB-216763, 3-(2,4-dichlorophenyl)-4-(1-methylindole-3-yl)-1H-pyrrole-2,5-dione]
[2]; final concentration 0.3 μmol/l, day 6
  number of Tuj1 positive neurons relative to control: 1.2 times
[2]; final concentration 1.0 μmol/l, day 6
  number of Tuj1 positive neurons relative to control: 1.8 times

## C=C[C@@]1(C)CC(=O)[C@]2(O)[C@@]3(C)[C@@H](O)CCC(C)(C)[C@@H]3[C@H](O)[C@H](OC(C)=O)[C@@]2(C)O1 [forskolin]
[2]; 1 μmol/l, coexistence with 3 mmol/l lithium chloride
  rate of increase in neurons: 1.2 times
[2]; 1 μmol/l, without lithium chloride
  rate of increase in neurons: 1.9 times
[2]; 5 μmol/l, coexistence with 3 mmol/l lithium chloride
  rate of increase in neurons: 1.1 times
[2]; 5 μmol/l, without lithium chloride
  rate of increase in neurons: 2.2 times

## [Cl-].[Na+] [sodium chloride]
[2]; final concentration 0.01 mmol/l, day 6 following induction of differentiation
  number of Tuj1 positive neurons relative to control: 1.0 times
[2]; final concentration 0.1 mmol/l, day 6 following induction of differentiation
  number of Tuj1 positive neurons relative to control: 1.1 times
[2]; final concentration 1 mmol/l, day 6 following induction of differentiation
  number of Tuj1 positive neurons relative to control: 1.2 times
[2]; final concentration 3 mmol/l, day 6 following induction of differentiation
  number of Tuj1 positive neurons relative to control: 1.2 times

## associated Aβ: beta amyloid peptide Aβ [1-40] incubated to form an associated product
[1]; final concentration 0.1 mg/ml, vs PBS
  decrease in number of Tuj1 positive neurons: 78%
[3]
  increase in number of apoptotic positive cells: 14%

## indirubin-3′-monoxime
[2]; final concentration 1 μmol/l, day 6
  number of Tuj1 positive neurons in comparison with the negative control: 1.4 times

## siRNA-B1: double stranded siRNA having SEQ ID NO: 14 and 15, specific for GSK-3β (chain 1 GUCAGUUACACAGACACUAUU; chain 2 UAGUGUCUGUGUAACUGACUU; listed as RNA, chemistry not given here)
[4]
  number of Tuj1 positive neurons in comparison with the negative control siRNA: 2.5 times
[5]
  amount of GSK-3α: unchanged

## siRNA-B2: double stranded siRNA having SEQ ID NO: 16 and 17, specific for GSK-3β (chain 1 GUCUAGCCUAUAUCCAUUCUU; chain 2 GAAUGGAUAUAGGCUAGACUU; listed as RNA, chemistry not given here)
[4]
  number of Tuj1 positive neurons in comparison with the negative control siRNA: 1.9 times
[5]
  amount of GSK-3α: unchanged
